Patent US10550422B2, “Methods and compositions for labeling nucleic acids” (President and Fellows of Harvard College, priority 2005, dated 2020)

Columns and labels:
[1] = test system: mouse intestine and brain; assay: In vivo EdU labeling of mice, organ sections stained with Xrhodamine-azide and Hoechst; conditions: 200 micrograms EdU intraperitoneally, organs harvested three days later
Procedure: BLAB/C mice were injected with 200 micrograms of EdU intraperitoneally. Three days later, organs were harvested, fixed, embedded in paraffin and sectioned. The sections were then de-waxed and stained with Xrhadomine-azide for 5 minutes, stained with Hoechst, washed and then mounted.

[2] = test system: HeLa cells; assay: Tracing a single sister chromatid: EdU pulse, chase of two cell cycles, Alexa568-azide stain; type: cell-based; conditions: EdU pulse during DNA synthesis, Alexa568-azide with permeabilization, FIG. 13
Description: The purpose of the experiment reported herein was to label only one DNA molecule of the two that form a chromosome. That was accomplished by pulsing HeLa cells with EdU during DNA synthesis followed by a chase lasting two cell cycles, as depicted on FIG. 12. […] EdU allowed very nice resolution imaging of chromosomes in cells as shown by FIG. 13.

[3] = test system: HeLa cells; assay: Time-lapse fluorescence imaging of EdU-labeled live cells stained with TMR-propyl-azide; type: cell-based; conditions: 200 nM TMR-propyl-azide, 25 mM ascorbate, 1 mM copper (II) sulfate, 37° C.; FIG. 7
Procedure: Ascorbic acid (from a […] stock in water) was then added to this solution to a final concentration of 50 mM, and the resulting staining solution is mixed thoroughly.
Washes with methanol or ethanol may be performed to obtain low background
To facilitate live microscopic imaging, EdU-labeled cells were plated in coverslip chambers which were mounted on the heated stage (37° C.) of an inverted Nikon TE200)U microscope equipped for wide-field fluorescence microscopy as well as spinning-disk confocal fluorescence microscopy (Yokogama spinning disk confocal head from Perkin-Elmer). […] The cells were imaged by time-lapse fluorescent microscopy (one frame every 15 seconds) to detect the TMR signal accumulating in the nuclei of the EdU-labeled cells.

[4] = test system: HeLa cells; assay: EdU labeling of HeLa cells, fixed/permeabilized, stained with Xrhodamine-azide (click chemistry); type: cell-based; conditions: 1 μM EdU, cell in anaphase, FIG. 11
Procedure: Ethynyl-dU (EdU) was used in tissue culture media (DMEM complemented with penicillin, streptomycin, and fetal calf serum (FCS)) ranging from 10 nM to 1 μM depending on the length of the labeling pulse. For example, if cells to be labeled were synchronized in the S phase, 100 nM to 1 μM of EdU was used for 1 to 2 hours. After labeling, the cells were washed 3 or 4 times with PBS and then tissue culture media was added.
Staining Solution: 100 mM Tris pH 8.5 (from 2 M stock in water), 0.5 to 1 mM CuSO4 (from 1 M stock in water), 0.5 to 1 μM fluorophore-azide (from approximately 10-100 mM stock in DMSO), and water (as required) were mixed together. Ascorbic acid (from a […] stock in water) was then added to this solution to a final concentration of 50-100 mM, and the resulting staining solution is mixed thoroughly using a vortex.
Cells can be fixed by any suitable method, e.g., cells can be fixed by aldehyde fixation (formaldehyde or glutaraldehyde), with or without permeabilization. After fixation, the cells were washed in buffer with or without non-ionic detergent (0.2-0.5% Triton X100). Before staining, cells were rinsed with buffer without detergent (PBS or TBS). The cells were then incubated in the presence of the staining solution for at least 30 minutes. Overnight staining is preferably performed in a cold room. […]

[5] = test system: HeLa cells; assay: AdU labeling of HeLa cells, stained with Alexa568-alkyne; type: cell-based; conditions: 10 μM AdU overnight, 10 μM Alexa568-alkyne; FIG. 16
Procedure: Here HeLa cells were labeled overnight in 10 μM AdU and then stained with 10 μM Alexa568-alkyne using the conditions described herein for staining cells labeled with EdU. FIG. 16 presents two pictures of a field of the stained HeLa cells.

Compound	EdU incorporation in intestine section ([1]; FIG. 8)	EdU-labeled cells in brain section ([1]; FIG. 10)	DNA molecules of a chromosome labeled after first and second mitosis [2]	time to complete EdU detection on live cells [3]	EdU stain of cellular DNA (fluorescence microscopy) [4]	detection of AdU in labeled cells [5]
C#Cc1cn([C@H]2C[C@H](O)[C@@H](CO)O2)c(=O)[nH]c1=O [EdU, 5-ethynyl-2′deoxyuracil]	The cells with red nuclei are the cells which incorporated EdU and their descendants	A sole EdU-labeled cell can be easily identified	In the first mitosis after labeling, both DNA molecules were labeled while in the second mitosis only one DNA molecule was labeled	complete within minutes	only the DNA replicating during the pulse was labeled	–
[N-]=[N+]=Nc1cn([C@H]2C[C@H](O)[C@@H](CO)O2)c(=O)[nH]c1=O [AdU, 5-azido-2′-deoxyuridine]	–	–	–	–	–	clearly detected in the nuclei of the labeled interphase cells as well as in the condensed chromosomes of mitotic cells
